Test results as given in patent US8815934B2, “2-Phenyl-1-[4-(2-Aminoethoxy)-Benzyl]-Indole and estrogen formulations” (Wyeth LLC, priority 1998, dated 2014).

Test system: Female Sprague Dawley CD rats, ovx
Experiment: 6-week ovariectomized rat model
Type: in vivo
Conditions: 2 μg/rat s.c. daily, mean ± SEM
Source text: Female Sprague Dawley CD rats, ovx or sham ovx, were obtained 1 day after surgery from Taconic Farm (weight range 240-275 g). They were housed 3 or 4 rats/cage in a room on a 14/10 (light/dark) schedule and provided with food (Purina 500 rat chow) and water ad libitum. Treatment for all studies began 1 day after the animals arrival and dosed 5 or 7 days per week as indicated for 6 weeks. A group of age matched sham operated rats not receiving any treatment served as an intact, estrogen replete control group for each study. All treatments were prepared in 1% […] in normal saline at defined concentrations so that the treatment volume was 0.1 mL/100 g body weight. 17-beta estradiol was dissolved in corn oil (20 uG/mL) and delivered subcutaneously; 0.1 mL/rat. All dosages were adjusted at three week intervals according to group mean body weight measurements.
Five weeks after the initiation of treatment and one week prior to the termination of the study, each rat was evaluated for bone mineral density (BMD). The BMD's of the proximal tibiae (PT) and fourth lumbar vertabrae (L4) were measured in anesthetized, rats using a dual energy X-ray absorptiometer (Eclipse XR-26, Norland Corp. Ft. Atkins, Wis.). […] Total choleserol is determined using a Boehringer-Mannheim Hitachi 911 clinical analyzer using the Cholesterol/HP kit. […]

With `C[C@]12CC[C@@H]3c4ccc(O)cc4CC[C@H]3[C@@H]1CC[C@@H]2O` [17β-estradiol] the “BMD L4” value (following 5 weeks of treatment) was 0.169 ± 0.004 mg/cm^2 and the Cholesterol (following 6 weeks of treatment) was 95.5 ± 3.9 mg/dL.
